Results as given in ChEMBL document CHEMBL1933065, “Synthesis and antifungal evaluation of pyrido[1,2-a]indole-1,4-diones and benzo[f]pyrido[1,2-a]indole-6,11-diones” (2012).
Values after ≈ are worked out from the molar mass of the structure shown.

How the values were obtained:
Assay type in all cases: functional
[1] = system: Candida albicans; test: Antifungal activity against Candida albicans Berkout KCCM 50235 after 1 day by standard two fold broth dilution method; details: Berkout KCCM 50235, 24 h
[2] = system: Candida tropicalis; test: Antifungal activity against Candida tropicalis Berkout KCCM 50662 after 1 day by two fold broth dilution method; details: Berkout KCCM 50662, 24 h
[3] = system: Pichia kudriavzevii; test: Antifungal activity against Candida krusei Berkout KCCM 11655 after 1 day by two fold broth dilution method; details: Berkout KCCM 11655, 24 h
[4] = system: Cryptococcus neoformans; test: Antifungal activity against Cryptococcus neoformans Berkout KCCM 50564 after 1 day by two fold broth dilution method; details: Berkout KCCM 50564, 24 h
[5] = system: Aspergillus niger; test: Antifungal activity against Aspergillus niger KCTC 1231 after 2 days by two fold broth dilution method; details: KCTC 1231, 48 h
[6] = system: Aspergillus flavus; test: Antifungal activity against Aspergillus flavus KCCM 11899 after 2 days by two fold broth dilution method; details: KCCM 11899, 48 h

Question: With `COC(=O)c1c2c(n3ccc(OC)cc13)C(=O)C(C)=C(C)C2=O` as the compound, how does the MIC [1] read?
Answer: 6.3 µg/mL (≈ 20.1 µM)

Question: And the MIC [2]?
Answer: 25 µg/mL (≈ 79.8 µM)

Question: What about the MIC [3] of the same compound?
Answer: 12.5 µg/mL (≈ 39.9 µM)

Question: And the MIC [4]?
Answer: 1.6 µg/mL (≈ 5.11 µM)

Question: And the MIC [5]?
Answer: 25 µg/mL (≈ 79.8 µM)

Question: What about the MIC [6] of the same compound?
Answer: 25 µg/mL (≈ 79.8 µM)

Question: What does the source list for `CC(=O)c1c2c(n3cc(Cl)ccc13)C(=O)C(C)=C(C)C2=O`?
Answer: MIC [1]: 6.3 µg/mL (≈ 20.9 µM); MIC [2]: 12.5 µg/mL (≈ 41.4 µM); MIC [3]: 3.2 µg/mL (≈ 10.6 µM); MIC [4]: 6.3 µg/mL (≈ 20.9 µM); MIC [5]: 1.6 µg/mL (≈ 5.3 µM); MIC [6]: 3.2 µg/mL (≈ 10.6 µM)

Question: For `CCOC(=O)c1c2c(n3ccccc13)C(=O)C(C)=C(C)C2=O`, which MIC [1] is on record?
Answer: 12.5 µg/mL (≈ 42 µM)

Question: What about the MIC [2] of the same compound?
Answer: 6.3 µg/mL (≈ 21.2 µM)

Question: And the MIC [3]?
Answer: 3.2 µg/mL (≈ 10.8 µM)

Question: And the MIC [4]?
Answer: 6.3 µg/mL (≈ 21.2 µM)

Question: And the MIC [5]?
Answer: 6.3 µg/mL (≈ 21.2 µM)

Question: And the MIC [6]?
Answer: 3.2 µg/mL (≈ 10.8 µM)

Question: `CCc1ccn2c3c(c(C)c2c1)C(=O)c1ccccc1C3=O` was tested. Which MIC [1] did it give?
Answer: 12.5 µg/mL (≈ 43.2 µM)

Question: And the MIC [2]?
Answer: 12.5 µg/mL (≈ 43.2 µM)

Question: And the MIC [3]?
Answer: 6.3 µg/mL (≈ 21.8 µM)

Question: What about the MIC [4] of the same compound?
Answer: 6.3 µg/mL (≈ 21.8 µM)

Question: And the MIC [5]?
Answer: 50 µg/mL (≈ 173 µM)

Question: What about the MIC [6] of the same compound?
Answer: 3.2 µg/mL (≈ 11.1 µM)

Question: What does the source list for `CCOC(=O)c1c2c(n3ccc(CC)cc13)C(=O)c1ccccc1C2=O`?
Answer: MIC [1]: 25 µg/mL (≈ 72 µM); MIC [2]: 50 µg/mL (≈ 144 µM); MIC [3]: > 100 µg/mL; MIC [4]: 25 µg/mL (≈ 72 µM); MIC [5]: > 100 µg/mL; MIC [6]: 50 µg/mL (≈ 144 µM)

Question: With `COc1cc[n+](C2=C(Cl)C(=O)c3ccccc3C2=O)cc1.[Cl-]` as the compound, how does the MIC [1] read?
Answer: > 100 µg/mL

Question: And the MIC [2]?
Answer: 50 µg/mL

Question: What about the MIC [3] of the same compound?
Answer: > 100 µg/mL

Question: What about the MIC [4] of the same compound?
Answer: 50 µg/mL

Question: What about the MIC [5] of the same compound?
Answer: > 100 µg/mL

Question: And the MIC [6]?
Answer: > 100 µg/mL

Question: With `COc1ccn2c3c(c(C)c2c1)C(=O)c1ccccc1C3=O` as the compound, how does the MIC [1] read?
Answer: 25 µg/mL (≈ 85.8 µM)

Question: What about the MIC [2] of the same compound?
Answer: > 100 µg/mL

Question: And the MIC [3]?
Answer: 50 µg/mL (≈ 172 µM)

Question: And the MIC [4]?
Answer: 25 µg/mL (≈ 85.8 µM)

Question: And the MIC [5]?
Answer: 25 µg/mL (≈ 85.8 µM)

Question: What about the MIC [6] of the same compound?
Answer: 50 µg/mL (≈ 172 µM)

Question: How did the MIC [1] turn out when `COc1ccn2c3c(c(C(C)=O)c2c1)C(=O)C(C)=C(C)C3=O` was run?
Answer: 25 µg/mL (≈ 84.1 µM)

Question: And the MIC [2]?
Answer: 25 µg/mL (≈ 84.1 µM)

Question: And the MIC [3]?
Answer: 3.2 µg/mL (≈ 10.8 µM)

Question: What about the MIC [4] of the same compound?
Answer: 6.3 µg/mL (≈ 21.2 µM)

Question: What about the MIC [5] of the same compound?
Answer: 3.2 µg/mL (≈ 10.8 µM)

Question: What about the MIC [6] of the same compound?
Answer: 25 µg/mL (≈ 84.1 µM)

Question: With `CCc1ccn2c3c(c(C(C)=O)c2c1)C(=O)C(C)=C(C)C3=O` as the compound, how does the MIC [1] read?
Answer: 6.3 µg/mL (≈ 21.3 µM)

Question: And the MIC [2]?
Answer: 12.5 µg/mL (≈ 42.3 µM)

Question: What about the MIC [3] of the same compound?
Answer: 3.2 µg/mL (≈ 10.8 µM)

Question: What about the MIC [4] of the same compound?
Answer: 6.3 µg/mL (≈ 21.3 µM)

Question: And the MIC [5]?
Answer: 1.6 µg/mL (≈ 5.42 µM)

Question: And the MIC [6]?
Answer: 3.2 µg/mL (≈ 10.8 µM)

Question: What does the source list for `CCOC(=O)c1c2c(n3ccc(OC)cc13)C(=O)C(C)=C(C)C2=O`?
Answer: MIC [1]: 12.5 µg/mL (≈ 38.2 µM); MIC [2]: 6.3 µg/mL (≈ 19.2 µM); MIC [3]: 6.3 µg/mL (≈ 19.2 µM); MIC [4]: 50 µg/mL (≈ 153 µM); MIC [5]: 3.2 µg/mL (≈ 9.78 µM); MIC [6]: 3.2 µg/mL (≈ 9.78 µM)

Question: For `CC(=O)c1c2c(n3ccc(C)cc13)C(=O)C(C)=C(C)C2=O`, which MIC [1] is on record?
Answer: 1.6 µg/mL (≈ 5.69 µM)

Question: And the MIC [2]?
Answer: 6.3 µg/mL (≈ 22.4 µM)

Question: And the MIC [3]?
Answer: 12.5 µg/mL (≈ 44.4 µM)

Question: And the MIC [4]?
Answer: 1.6 µg/mL (≈ 5.69 µM)

Question: What about the MIC [5] of the same compound?
Answer: 3.2 µg/mL (≈ 11.4 µM)

Question: What about the MIC [6] of the same compound?
Answer: 3.2 µg/mL (≈ 11.4 µM)

Question: Which MIC [1] does the source give for `CCOC(=O)c1c2c(n3ccc(OC)cc13)C(=O)c1ccccc1C2=O` here?
Answer: 12.5 µg/mL (≈ 35.8 µM)

Question: What about the MIC [2] of the same compound?
Answer: 25 µg/mL (≈ 71.6 µM)

Question: And the MIC [3]?
Answer: 25 µg/mL (≈ 71.6 µM)

Question: And the MIC [4]?
Answer: 3.2 µg/mL (≈ 9.16 µM)

Question: What about the MIC [5] of the same compound?
Answer: 6.3 µg/mL (≈ 18 µM)

Question: And the MIC [6]?
Answer: 12.5 µg/mL (≈ 35.8 µM)

Question: Which MIC [1] does the source give for `CCc1ccn2c3c(c(C(=O)OC)c2c1)C(=O)c1ccccc1C3=O` here?
Answer: 6.3 µg/mL (≈ 18.9 µM)

Question: What about the MIC [2] of the same compound?
Answer: 12.5 µg/mL (≈ 37.5 µM)

Question: What about the MIC [3] of the same compound?
Answer: 50 µg/mL (≈ 150 µM)

Question: What about the MIC [4] of the same compound?
Answer: 12.5 µg/mL (≈ 37.5 µM)

Question: And the MIC [5]?
Answer: 3.2 µg/mL (≈ 9.6 µM)

Question: What about the MIC [6] of the same compound?
Answer: 25 µg/mL (≈ 75 µM)

Question: Which MIC [1] does the source give for `CCc1ccn2c3c(c(C(C)=O)c2c1)C(=O)c1ccccc1C3=O` here?
Answer: 50 µg/mL (≈ 158 µM)

Question: What about the MIC [2] of the same compound?
Answer: > 100 µg/mL

Question: What about the MIC [3] of the same compound?
Answer: 50 µg/mL (≈ 158 µM)

Question: And the MIC [4]?
Answer: 25 µg/mL (≈ 78.8 µM)

Question: What about the MIC [5] of the same compound?
Answer: 25 µg/mL (≈ 78.8 µM)

Question: What about the MIC [6] of the same compound?
Answer: 12.5 µg/mL (≈ 39.4 µM)

Question: With `CCOC(=O)c1c2c(n3ccc(C)cc13)C(=O)c1ccccc1C2=O` as the compound, how does the MIC [1] read?
Answer: 6.3 µg/mL (≈ 18.9 µM)

Question: And the MIC [2]?
Answer: 3.2 µg/mL (≈ 9.6 µM)

Question: What about the MIC [3] of the same compound?
Answer: 12.5 µg/mL (≈ 37.5 µM)

Question: And the MIC [4]?
Answer: 6.3 µg/mL (≈ 18.9 µM)

Question: What about the MIC [5] of the same compound?
Answer: 12.5 µg/mL (≈ 37.5 µM)

Question: What about the MIC [6] of the same compound?
Answer: 25 µg/mL (≈ 75 µM)

Question: For `CCOC(=O)c1c2c(n3ccc(CC)cc13)C(=O)C(C)=C(C)C2=O`, which MIC [1] is on record?
Answer: 6.3 µg/mL (≈ 19.4 µM)

Question: What about the MIC [2] of the same compound?
Answer: 12.5 µg/mL (≈ 38.4 µM)

Question: What about the MIC [3] of the same compound?
Answer: 6.3 µg/mL (≈ 19.4 µM)

Question: What about the MIC [4] of the same compound?
Answer: 6.3 µg/mL (≈ 19.4 µM)

Question: And the MIC [5]?
Answer: 12.5 µg/mL (≈ 38.4 µM)

Question: What about the MIC [6] of the same compound?
Answer: 6.3 µg/mL (≈ 19.4 µM)

Question: Which MIC [1] does the source give for `CCOC(=O)c1c2c(n3cc(C)ccc13)C(=O)C(C)=C(C)C2=O` here?
Answer: 12.5 µg/mL (≈ 40.1 µM)

Question: And the MIC [2]?
Answer: 12.5 µg/mL (≈ 40.1 µM)

Question: And the MIC [3]?
Answer: 12.5 µg/mL (≈ 40.1 µM)

Question: What about the MIC [4] of the same compound?
Answer: 3.2 µg/mL (≈ 10.3 µM)

Question: And the MIC [5]?
Answer: 25 µg/mL (≈ 80.3 µM)

Question: What about the MIC [6] of the same compound?
Answer: 12.5 µg/mL (≈ 40.1 µM)

Question: For `CCOC(=O)c1c2c(n3ccc(C)cc13)C(=O)C(C)=C(C)C2=O`, which MIC [1] is on record?
Answer: 6.3 µg/mL (≈ 20.2 µM)

Question: And the MIC [2]?
Answer: 50 µg/mL (≈ 161 µM)

Question: And the MIC [3]?
Answer: 6.3 µg/mL (≈ 20.2 µM)

Question: What about the MIC [4] of the same compound?
Answer: 12.5 µg/mL (≈ 40.1 µM)

Question: And the MIC [5]?
Answer: 3.2 µg/mL (≈ 10.3 µM)

Question: What about the MIC [6] of the same compound?
Answer: 6.3 µg/mL (≈ 20.2 µM)
